Measured values as given in article PMC4438233, “Antibacterial effects of Traditional Chinese Medicine monomers against Streptococcus pneumoniae via inhibiting pneumococcal histidine kinase (VicK)” (Frontiers in Microbiology, 2015).
Read-outs that look alike come from different tables or passages of the source. Marks after values point to notes of the source that are not given here.

Key:
S. mitis = experiment: MIC against S. mitis; type: cell-based; conditions: Streptococcus mitis; S. mitis clinical isolate; 10^6 CFU/ml; read-out: MIC
Procedure: (§1) Minimum inhibitory concentration (MIC) assays for the antibacterial activities of the compounds were performed according to the standard […] method of the Clinical and Laboratory Standards Institute of America. MIC testing of drug-resistant S. pneumoniae, drug-resistant S. aureus, streptococci and antimicrobial combination was also performed using the same method. Briefly, the drugs were serially diluted 2-fold into eight wells with C+Y medium, yielding final concentrations ranging from […]. Then 10^6 CFU bacteria were added to each well. Inoculated medium containing 1% DMSO served as a bacterial growth control, whereas uninoculated medium served as a sterility control. The plates were incubated at 37°C for 12–16 h. […] The experiment was repeated three times.

[1] = tested on: clinical S. pneumoniae 19A (CMCC31689); experiment: Mouse colonization model, serotype 19A; type: in vivo, BALB/c mice; conditions: for Mean log CFU at site of infection: 19A
Procedure: (§2) In colonization models, the mice were intranasally challenged by 20 μL of clinical drug-resistant strains (pneumococcal serotype 19F or 19A, 1.5 × 10^8 CFU). An hour later, the mice were intraperitoneally injected with 100 μL drugs (2 × MIC) alone or in combination with PEN (2 × MIC). These injections were continued thrice a day for 3 d. Nasal wash and lung tissues were obtained to analyze the bacteria load at 24, 48, and 72 h after drug infection. Then 100 μL aliquots of the samples diluted were plated on blood agar plates. The colonies were counted after incubation overnight at 37°C with 5% CO2.

[2] = tested on: Penicillin-resistant S. pneumoniae strains; experiment: Checkerboard test with penicillin against penicillin-resistant S. pneumoniae; type: cell-based, Streptococcus pneumoniae; conditions: Streptococcus pneumoniae, agent alone, read-out: MIC, Alone
Procedure: as §1
The antimicrobial effects of different combinations of two antimicrobial agents were assayed using the checkerboard test (Bajaksouzian et al., [1997]). Each experiment was repeated thrice. The in vitro interaction between the five drugs with PEN was quantified by the fractional inhibitory concentration (FIC). The FIC index (FICI) was calculated using the following formula:
(§3) (2) FIC=FICA+FICB=[A]/MICA+[B]/MICB
(§4) where [A] and [B] are the concentrations of drugs A and B, respectively; MICA and FICA are the MIC and FIC of drug A for the organism, respectively; and MICB, and FICB are the MIC and FIC of drug B for the organism, respectively. The FIC index obtained was interpreted as follows: =0.5, synergy; FIC > 2.0, antagonism (Gupta and Kohli, [2003]).

S. pyogenes = experiment: MIC against S. pyogenes; type: cell-based; conditions: Streptococcus pyogenes; S. pyogenes clinical isolate; 10^6 CFU/ml; read-out: MIC
Procedure: as §1

S. pseudopneumoniae = experiment: MIC against S. pseudopneumoniae; type: cell-based; conditions: Streptococcus pseudopneumoniae; S. pseudopneumoniae clinical isolate; 10^6 CFU/ml; read-out: MIC
Procedure: as §1

pneumococcal strains = experiment: MIC against clinical pneumococcal strains (penicillin susceptible, intermediate, resistant); type: cell-based, Streptococcus pneumoniae; conditions: for MIC50 / MIC90: Streptococcus pneumoniae; for MIC50: read-out: MIC of pneumococcal strains, MIC50; for MIC90: read-out: MIC of pneumococcal strains, MIC90
Procedure: as §1

S. pneumoniae NCTC7466 [3] = experiment: MIC against S. pneumoniae NCTC7466 (D39); type: cell-based; conditions: Streptococcus pneumoniae, S. pneumoniae NCTC7466 (D39), read-out: MIC
Procedure: as §1

full-length VicK protein = target: T1, full-length VicK protein (Streptococcus pneumoniae, UniProt Q8DPL8); experiment: Inhibition assay for ATPase activity of VicK (Kinase-Glo Luminescent Kinase Assay); type: biochemical; conditions: IC50 (inhibition of VicK ATPase activity / autophosphorylation), 6 μg VicK, 5 μM ATP
T1 construct: 6 His; made in house
Procedure: The inhibitory activities of the Chinese medicine monomers for the ATPase activity of the full-length VicK protein were evaluated using the Kinase-Glo™Luminescent Kinase Assay (Promega, Madison, USA). Briefly, 6 μg VicK protein was pre-incubated with a series of dilution of compounds in the reaction buffer at 37°C for 30 min. 5 μM ATP was added and incubated for another 30 min. Kinase-Glo™Reagent was also added to detect the remaining ATP recorded from luminescence measurements (RLU). In parallel, the VicK protein with no addition of compounds was used as a control, and the mixture with compounds excluding the VicK protein served as another control. The rate of protein phosphorylation (Rp) inhibition by the compounds was calculated from Equation (1).
(1) Rp=1−RLU(compound+ATP+Reagent) −RLU(compound+ATP+vick+Reagent)/RLU(ATP +Reagent)−RLU(ATP+vick+Reagent)×100%
The half maximal inhibitory concentration (IC50), which is the concentration of inhibition of 50% VicK protein autophosphorylation, was determined by GraphPad Prism 5 (Qin et al., [2006]).

[4] = tested on: clinical S. pneumoniae 19F (CMCC31693); experiment: Mouse colonization model, serotype 19F; type: in vivo, BALB/c mice; conditions: for Mean log CFU at site of infection: 19F
Procedure: as §2

S. pneumoniae NCTC7466 [5] = experiment: Mouse sepsis model, survival time; type: in vivo, BALB/c mice; conditions: i.p. infection 1 × 10^3 CFU; drug i.p. thrice a day for 3 d; untreated control 28.8 ± 1.25
Procedure: Female BALB/c mice (12–15 per group) aged 4–6 weeks were used to evaluate the antimicrobial effects of the compounds in vivo. In sepsis models, the mice were intraperitoneally infected with 100 μL S. pneumoniae NCTC7466 strain suspension (1 × 10^3 CFU). […] Two control groups were injected with 100 μL 1% DMSO (dissolved the drugs, negative control) or PEN (0.42 mg/kg/d, positive control) following the same injection route. The result was expressed as cumulative survival times following 7 d of observation.

[6] = tested on: Methicillin resistant S. aureus; experiment: MIC against methicillin resistant S. aureus; type: cell-based; conditions: Staphylococcus aureus; Methicillin resistant S. aureus (4 isolates); 10^6 CFU/ml; read-out: MIC
Procedure: as §1

S. pneumoniae = experiment: Checkerboard test with erythromycin or tetracycline against S. pneumoniae; type: cell-based, Streptococcus pneumoniae
Procedure: The antimicrobial effects of different combinations of two antimicrobial agents were assayed using the checkerboard test (Bajaksouzian et al., [1997]). Each experiment was repeated thrice. […] The FIC index (FICI) was calculated using the following formula:
as §3, §4

S. mutans = experiment: MIC against S. mutans; type: cell-based; conditions: Streptococcus mutans; S. mutans clinical isolate; 10^6 CFU/ml; read-out: MIC
Procedure: as §1

[7] = Penicillin intermediate (n = 12)
[8] = in combination with Erythromycin
[9] = in combination with Tetracycline

T1 sequence (Q8DPL8 whole entry): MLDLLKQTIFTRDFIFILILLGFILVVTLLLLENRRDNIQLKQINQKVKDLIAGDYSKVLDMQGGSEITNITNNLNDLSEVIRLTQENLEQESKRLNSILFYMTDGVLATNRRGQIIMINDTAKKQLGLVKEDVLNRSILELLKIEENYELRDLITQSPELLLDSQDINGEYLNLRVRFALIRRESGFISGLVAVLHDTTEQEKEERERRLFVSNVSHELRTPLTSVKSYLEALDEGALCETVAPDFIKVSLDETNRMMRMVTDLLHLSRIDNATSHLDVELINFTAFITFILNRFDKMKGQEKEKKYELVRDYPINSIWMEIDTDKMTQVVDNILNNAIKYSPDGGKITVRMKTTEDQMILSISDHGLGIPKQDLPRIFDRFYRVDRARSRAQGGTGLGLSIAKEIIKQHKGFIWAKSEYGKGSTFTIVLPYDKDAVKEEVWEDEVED

Q: With `CCCCCCCCCCCCOC(=O)c1cc(O)c(O)c(O)c1` [Compound 5, Dodecyl gallate] as the compound, how does the MIC (S. mitis) read?
A: Its MIC is 338 µg/mL.

Q: And the “Mean log CFU at site of infection” value ([1]; Lung, 24 h, control 4.85)?
A: Its value is 1 log CFU.

Q: What about the “Mean log CFU at site of infection” value ([1]; Lung, 48 h, control 6.12) of the same compound?
A: Its value is 3 log CFU.

Q: And the “Mean log CFU at site of infection” value ([1]; Lung, 72 h, control 6.29)?
A: The value was 2.82 log CFU.

Q: What about the “Mean log CFU at site of infection” value ([1]; NW (nasal wash), 24 h, i.p. three times a day for 3 days, control 7.29) of the same compound?
A: The value was 5.91 (0.021)^b log CFU.

Q: What about the “Mean log CFU at site of infection” value ([1]; NW, 48 h, control 5.97) of the same compound?
A: The value was 5.28 log CFU.

Q: What about the “Mean log CFU at site of infection” value ([1]; NW, 72 h, control 6.01) of the same compound?
A: Its value is 3.62 (0.033)^b log CFU.

Q: What about the “reduction of 19A bacterial numbers” value ([1]; at 24 h) of the same compound?
A: The value was “two-log reduction”.

Q: What about the MIC ([2]; strain 652336) of the same compound?
A: The MIC was 84.4 µg/mL.

Q: What about the MIC ([2]; strain 736007) of the same compound?
A: Its MIC is 337 µg/mL.

Q: And the MIC ([2]; strain 8364981)?
A: Its MIC is 168 µg/mL.

Q: And the MIC ([2]; strain 12092624)?
A: The MIC was 84.4 µg/mL.

Q: And the MIC (S. pyogenes)?
A: Its MIC is 42 µg/mL.

Q: What about the MIC (S. pseudopneumoniae) of the same compound?
A: Its MIC is 42 µg/mL.

Q: And the “MIC of pneumococcal strains, Range” value (pneumococcal strains; [7])?
A: Its value is 42 to 168 µg/mL.

Q: What about the “MIC of pneumococcal strains, MIC50” value (pneumococcal strains; Penicillin resistant (n = 15)) of the same compound?
A: Its value is 42 µg/mL.

Q: And the “MIC of pneumococcal strains, Range” value (pneumococcal strains; Penicillin resistant (n = 15))?
A: The value was 10.5 to 168.8 µg/mL.

Q: What about the “MIC of pneumococcal strains, Range” value (pneumococcal strains; Penicillin susceptible (n = 7)) of the same compound?
A: Its value is 21 to 168 µg/mL.

Q: And the MIC50 (pneumococcal strains; [7])?
A: Its MIC50 is 84 µg/mL.

Q: What about the MIC90 (pneumococcal strains; [7]) of the same compound?
A: Its MIC90 is 168 µg/mL.

Q: What about the MIC50 (pneumococcal strains; Penicillin resistant (n = 15)) of the same compound?
A: The MIC50 was 42 µg/mL.

Q: What about the MIC90 (pneumococcal strains; Penicillin resistant (n = 15)) of the same compound?
A: The MIC90 was 169 µg/mL.

Q: And the MIC50 (pneumococcal strains; Penicillin susceptible (n = 7))?
A: The MIC50 was 42 µg/mL.

Q: What about the MIC90 (pneumococcal strains; Penicillin susceptible (n = 7)) of the same compound?
A: The MIC90 was 42 µg/mL.

Q: And the MIC (S. pneumoniae NCTC7466 [3])?
A: The MIC was 21 µg/mL.

Q: What about the MIC (S. pneumoniae NCTC7466 [3]; value in parentheses) of the same compound?
A: Its MIC is 62 µM.

Q: What about the IC50 (full-length VicK protein) of the same compound?
A: The IC50 was 9.1 µM.

Q: And the IC50 (full-length VicK protein; value in parentheses)?
A: Its IC50 is 9.07 µM.

Q: And the “Mean log CFU at site of infection” value ([4]; Lung, 24 h, control 2.82)?
A: The value was 3.9 (0.0001)^b log CFU.

Q: What about the “Mean log CFU at site of infection” value ([4]; Lung, 48 h, control 7.57) of the same compound?
A: Its value is 3 (0.006)^b log CFU.

Q: And the “Mean log CFU at site of infection” value ([4]; Lung, 72 h, control 4.95)?
A: The value was 2.8 (<0.0001)^b log CFU.

Q: And the “Mean log CFU at site of infection” value ([4]; NW (nasal wash), 24 h, i.p. three times a day for 3 days, control 6.72)?
A: The value was 2.16 log CFU.

Q: And the “Mean log CFU at site of infection” value ([4]; NW, 48 h, control 6.27)?
A: Its value is 5.55 log CFU.

Q: And the “Mean log CFU at site of infection” value ([4]; NW, 72 h, control 7.09)?
A: The value was 5.82 (<0.0001)^b log CFU.

Q: And the “reduction in 19F bacterial numbers” value ([4]; at 24 h)?
A: The value was “one-log reduction”.

Q: And the “Mean survival of mice ± SEM” value (S. pneumoniae NCTC7466 [5])?
A: Its value is 60.2 ± 7.3 h.

Q: And the MIC [6]?
A: Its MIC is 84.4 to 336 µg/mL.

Q: What about the FICI (S. pneumoniae; [8]) of the same compound?
A: The FICI was 0.31.

Q: What about the Outcome (S. pneumoniae; [8]) of the same compound?
A: The Outcome was “Synergy (=0.5, synergy)”.

Q: And the FICI (S. pneumoniae; [9])?
A: The FICI was 0.18.

Q: And the Outcome (S. pneumoniae; [9])?
A: Its Outcome is “Synergy (=0.5, synergy)”.

Q: What about the MIC (S. mutans) of the same compound?
A: Its MIC is 42 µg/mL.
